According to patent publication US20150011751A1, “NOVEL TRIAZINE DERIVATIVE” (CARNA BIOSCIENCES, INC., priority 2012, published 2015):

What follows are compounds tested against Dephosphorylated BTK (Homo sapiens, UniProt Q06187) (assay: Test of activity inhibition against dephosphorylated BTK (mobility shift assay)).
Sequence of Dephosphorylated BTK (Q06187 whole entry): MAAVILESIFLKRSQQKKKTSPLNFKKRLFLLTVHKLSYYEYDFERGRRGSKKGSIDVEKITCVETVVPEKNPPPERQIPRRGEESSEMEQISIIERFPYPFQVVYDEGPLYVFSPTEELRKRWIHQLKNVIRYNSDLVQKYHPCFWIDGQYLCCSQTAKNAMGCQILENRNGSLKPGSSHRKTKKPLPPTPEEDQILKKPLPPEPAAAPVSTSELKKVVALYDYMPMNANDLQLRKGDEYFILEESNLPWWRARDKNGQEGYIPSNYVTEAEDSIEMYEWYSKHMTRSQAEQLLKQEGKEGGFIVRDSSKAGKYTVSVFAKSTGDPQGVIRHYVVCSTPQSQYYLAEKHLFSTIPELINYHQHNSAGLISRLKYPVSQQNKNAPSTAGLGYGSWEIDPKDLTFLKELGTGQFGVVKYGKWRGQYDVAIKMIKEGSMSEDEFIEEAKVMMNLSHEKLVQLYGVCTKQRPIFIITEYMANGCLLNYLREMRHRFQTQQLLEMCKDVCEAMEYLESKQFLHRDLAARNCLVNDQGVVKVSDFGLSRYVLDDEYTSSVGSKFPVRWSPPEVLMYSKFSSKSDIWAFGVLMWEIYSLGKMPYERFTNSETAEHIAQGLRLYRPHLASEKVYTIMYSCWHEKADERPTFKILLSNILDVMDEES
In the case of `Cc1c(NC(=O)c2ccc(C(C)(C)C)cc2)cccc1-c1nc(N)nc(Nc2ccc(N3CCCOCC3)cc2)n1` [Example 86, N-[3-(4-{[4-(1,4-Oxaze-pan-4-yl)phenyl]amino}-6-amino-1,3,5-tria-zin-2-yl)-2-methyl-phenyl]-4-(tert-butyl)benzamide], the IC50 is reported as 4 nM.
Work on `COCCOc1ccc(Nc2nc(N)nc(-c3cccc(N4CCc5cc(C6CC6)cc(F)c5C4=O)c3CO)n2)cc1OCCOC` [Example 48, 2-[3-(4-Amino-6-{[3,4-bis(2-methoxyethoxy)phenyl]amino}-1,3,5-tri-azin-2-yl}-2-(hydroxy-methyl)phenyl]-6-cyclo-propyl-8-fluoro-3,4-dihydroisoquinolin-1(2H)-one] yielded an IC50 of 3.4 nM.
`CC(C1CC1)n1cc(Nc2nc(N)nc(-c3cccc(N4CCc5cc(C6CC6)cc(F)c5C4=O)c3CO)n2)cn1` (stereo not shown) [Example 270, 2-[3-(4-Amino-6-{[1-(1-cyclopropylethyl)-1H-pyrazol-4-yl]amino}-1,3,5-triazin-2-yl)-2-(hydroxymethyl)phe-nyl]-6-cyclopropyl-8-fluoro-3,4-dihydroiso-quinolin-1(2H)-one] was tested, and the IC50 was 0.7 nM.
`Nc1nc(Nc2ccc(N3CCCC(O)C3)cc2)nc(-c2cccc(NC(=O)c3cc4c(s3)CCCC4)c2CO)n1` (stereo not shown) [Example 143, N-[3-(4-Amino-6-{[4-(3-hydroxypiperidin-1-yl)phenyl]amino}-1,3,5-triazin-2-yl)-2-(hy-droxymethyl)phenyl]-4,5,6,7-tetrahydrobenzo [b]thiophene-2-carbox-amide] showed an IC50 of 0.9 nM.
With `Cn1cc(Nc2nc(N)nc(-c3cccc(N4CCc5cc(C6CC6)cc(F)c5C4=O)c3CO)n2)cc1C#N` [Example 269, 4-({4-Amino-6-[3-(6-cyclo-propyl-8-fluoro-1-oxo-3,4-dihydroisoquino-lin-2(1H)-yl)-2-(hy-droxymethyl)phenyl]-1,3,5-triazin-2-yl}ami-no)-1-methyl-1H-pyrrole-2-carbonitrile] the IC50 was 0.8 nM.
Compound `CN(C)C(=O)c1cc(Nc2nc(N)nc(-c3cccc(N4CCc5cc(C6CC6)cc(F)c5C4=O)c3CO)n2)cn1C` [Example 272, 4-({4-Amino-6-[3-(6-cyclo-propyl-8-fluoro-1-oxo-3,4-dihydroisoquino-lin-2(1H)-yl)-2-(hydroxy-methyl)phenyl]-1,3,5-triazin-2-yl}ami-no)-N,N,1-trimethyl-1H-pyrrole-2-carboxamide] has an IC50 of 1.1 nM.
`CC(C)(C)c1ccc(C(=O)Nc2cccc(-c3nc(N)nc(Nc4ccc(-c5nn[nH]n5)cc4)n3)c2CO)cc1` [Example 202, N-[3-(4-{[4-(1H-Tetra-zol-5-yl)phenyl]amino}-6-amino-1,3,5-triaz-in-2-yl)-2-(hydroxy-methyl)phenyl]-4-(tert-butyl)benzamide] was tested, and the IC50 was 1.3 nM.
`Nc1nc(Nc2ccc(N3CCOCC3)c(F)c2)nc(-c2cccc(N3CCc4cc(C5CC5)cc(F)c4C3=O)c2CO)n1` [Example 242, 2-(3-{4-Amino-6-[(3-fluoro-4-morpholinophe-nyl)amino]-1,3,5-tri-azin-2-yl}-2-(hydroxymeth-yl)phenyl)-6-cyclo-propyl-8-fluoro-3,4-di-hydroisoquinolin-1(2H)-one] gave an IC50 of 1.5 nM.
`CC(C)(C)c1ccc(C(=O)Nc2cccc(-c3nc(N)nc(Nc4cccc(CN5CCOCC5)c4)n3)c2CO)cc1` [Example 163, N-[3-(4-Amino-6-{[3-(morpholinomethyl)phe-nyl]amino}-1,3,5-triazin-2-yl)-2-(hydroxymeth-yl)phenyl]-4-(tert-butyl)benzamide] gave an IC50 of 1 nM.
`Nc1nc(Nc2ccc(O)cc2)nc(-c2cccc(N3CCc4cc(C5CC5)cc(F)c4C3=O)c2CO)n1` [Example 182, 2-(3-{4-Amino-6-[(4-hy-droxyphenyl)amino]-1,3,5-triazin-2-yl}-2-(hydroxymethyl)phenyl)-6-cyclopropyl-8-fluoro-3,4-dihydro-isoquinolin-1(2H)-one] showed an IC50 of 3.6 nM.
Compound `CC(C)(C)OC(=O)Nc1ccc(Nc2nc(N)nc(-c3cccc(NC(=O)c4ccc(C(C)(C)C)cc4)c3CO)n2)cc1` [Example 120, tert-Butyl {4-[(4-amino-6-{3-[4-(tert-butyl)benzamido]-2-(hydroxymethyl)phe-nyl}-1,3,5-triazin-2-yl)amino]phenyl}carbamate] has an IC50 of 5.5 nM.
`CS(=O)(=O)n1cc(Nc2nc(N)nc(-c3cccc(N4CCc5cc(C6CC6)cc(F)c5C4=O)c3CO)n2)cn1` [Example 233, 2-[3-(4-Amino-6-{[1-(meth-ylsulfonyl)-1H-py-razol-4-yl]amino}-1,3,- 5-triazin-2-yl)-2-(hy-droxymethyl)phenyl]-6-cyclopropyl-8-fluoro-3,4-dihydroisoquino-lin-1(2H)-one] showed an IC50 of 4.2 nM.
`CC(C)(C)c1ccc(C(=O)Nc2cccc(-c3nc(N)nc(Nc4ccc(CC#N)cc4)n3)c2CO)cc1` [Example 148, N-[3-(4-Amino-6-{[4-(cyano-methyl)phenyl]ami-no}-1,3,5-triazin-2-yl)-2-(hydroxymethyl)phenyl]-4-(tert-butyl) benzamide] showed an IC50 of 0.8 nM.
`Nc1nc(Nc2ccc(OCCCO)cc2)nc(-c2cccc(N3CCc4cc(C5CC5)cc(F)c4C3=O)c2CO)n1` [Example 197, 2-[3-(4-Amino-6-{[4-(3-hydroxypropoxy)phe-nyl]amino}-1,3,5-tri-azin-2-yl)-2-(hydroxymeth-yl)phenyl]-6-cyclo-propyl-8-fluoro-3,4-di-hydroisoquinolin-1(2H)-one] showed an IC50 of 2.4 nM.
With `Nc1nc(Nc2ccc(OC3CCOCC3)c(F)c2)nc(-c2cccc(N3CCc4cc(C5CC5)cc(F)c4C3=O)c2CO)n1` [Example 194, 2-{3-[4-Amino-6-({3-fluoro-4-[(tetrahydro-2H-pyran-4-yl)oxy]phe-nyl}amino)-1,3,5-tria-zin-2-yl]-2-(hydroxy-methyl)phenyl}-6-cyclo-propyl-8-fluoro-3,4-dihydroisoquinolin-1(2H)-one] the IC50 was 0.9 nM.
In the case of `CC(C)(C)c1ccc(C(=O)Nc2cccc(-c3nc(N)nc(Nc4ccc(N5CCOCC5)cn4)n3)c2CO)cc1` [Example 99, N-(3-{4-Amino-6-[(5-morpholinopyridin-2-yl)amino]-1,3,5-triazin-2-yl}-2-(hydroxymeth-yl)phenyl)-4-(tert-butyl)benzamide], the IC50 is reported as 10.6 nM.
`Cc1c(NC(=O)c2ccc(C(C)(C)C)cc2)cccc1-c1nc(N)nc(Nc2ccc(N3CCCC(O)C3)cc2)n1` (stereo not shown) [Example 81, N-[3-(4-Amino-6-{[4-(3-hydroxypiperidin-1-yl)phenyl]amino}-1,3,5-triazin-2-yl)-2-meth-ylphenyl]-4-(tert-bu-tyl)benzamide] showed an IC50 of 2.2 nM.
`Nc1nc(Nc2cc3n(c2)CCNC3=O)nc(-c2cccc(N3CCc4cc(C5CC5)cc(F)c4C3=O)c2CO)n1` [Example 267, 2-(3-{4-Amino-6-[(1-oxo-1,2,3,4-tetrahydro-pyrrolo[1,2-a]pyrazin-7-yl)amino]-1,3,5-tri-azin-2-yl}-2-(hydroxy-methyl)phenyl)-6-cyclo-propyl-8-fluoro-3,4-dihydroisoquinolin-1 (2H)-one] was tested, and the IC50 was 1.5 nM.
With `Nc1nc(Nc2cnn(C3CC3)c2)nc(-c2cccc(N3CCc4cc(C5CC5)cc(F)c4C3=O)c2CO)n1` [Example 238, 2-(3-{4-Amino-6-[(1-cyclo-propyl-1H-pyrazol-4-yl)amino]-1,3,5-tri-azin-2-yl}-2-(hydroxy-methyl)phenyl)-6-cyclo-propyl-8-fluoro-3,4-dihydroisoquinolin-1 (2H)-one] the IC50 was 0.9 nM.
